The record followed here is patent publication US9527869B2, “Indolizine derivatives as phoshoinositide 3-kinases inhibitors” (CHIESI FARMACEUTICI S.P.A., priority 2014, dated 2016).

Common to all, as to format: biochemical
One assay deals with T1, PI3Kδ (Homo sapiens, UniProt O00329).
T1 construct: purchased Millipore Ltd (Billerica, Mass.)
As to the kind of experiment: In vitro determination of the PI3K enzyme inhibitory activity in the cell free assay (ADP-Glo Kinase Assay), PI3Kδ. The settings on record: ATP 80 μM, read-out: PI3K delta inhibition. In short, it runs like this: (§1)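 IC50 values came from four-parameter logistic fitting of ADP-Glo luminescence after 60 min kinase reactions at room temperature. ATP (final) was set per isoform: α 50 μM, β 100 μM, γ 30 μM, δ 80 μM. Substrates were phosphatidylinositol and phosphatidylserine (50 μM in 2× Tris pH 7.5 buffer), with human recombinant enzymes.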

Another assay has as its target T2, PI3Kγ (Homo sapiens, UniProt P48736).
T2 construct: purchased Millipore Ltd (Billerica, Mass.)
Kind of assay: In vitro determination of the PI3K enzyme inhibitory activity in the cell free assay (ADP-Glo Kinase Assay), PI3Kγ. The settings on record: ATP 30 μM, read-out: PI3K gamma inhibition. In short, it runs like this: as §1

Another assay has as its target T3, PI3Kβ (Homo sapiens, UniProt P42338).
T3 construct: purchased Millipore Ltd (Billerica, Mass.)
As to the kind of experiment: In vitro determination of the PI3K enzyme inhibitory activity in the cell free assay (ADP-Glo Kinase Assay), PI3Kβ. To be noted: ATP 100 μM, read-out: PI3K beta inhibition. In a few lines: as §1

The next assay deals with T4, PI3Kα (Homo sapiens, UniProt P42336).
T4 construct: purchased Millipore Ltd (Billerica, Mass.)
As to the kind of experiment: In vitro determination of the PI3K enzyme inhibitory activity in the cell free assay (ADP-Glo Kinase Assay), PI3Kα. To be noted: ATP 50 μM, read-out: PI3K alpha inhibition. In short, it runs like this: as §1

Some results are limits rather than exact numbers.

T3 sequence (P42338 whole entry): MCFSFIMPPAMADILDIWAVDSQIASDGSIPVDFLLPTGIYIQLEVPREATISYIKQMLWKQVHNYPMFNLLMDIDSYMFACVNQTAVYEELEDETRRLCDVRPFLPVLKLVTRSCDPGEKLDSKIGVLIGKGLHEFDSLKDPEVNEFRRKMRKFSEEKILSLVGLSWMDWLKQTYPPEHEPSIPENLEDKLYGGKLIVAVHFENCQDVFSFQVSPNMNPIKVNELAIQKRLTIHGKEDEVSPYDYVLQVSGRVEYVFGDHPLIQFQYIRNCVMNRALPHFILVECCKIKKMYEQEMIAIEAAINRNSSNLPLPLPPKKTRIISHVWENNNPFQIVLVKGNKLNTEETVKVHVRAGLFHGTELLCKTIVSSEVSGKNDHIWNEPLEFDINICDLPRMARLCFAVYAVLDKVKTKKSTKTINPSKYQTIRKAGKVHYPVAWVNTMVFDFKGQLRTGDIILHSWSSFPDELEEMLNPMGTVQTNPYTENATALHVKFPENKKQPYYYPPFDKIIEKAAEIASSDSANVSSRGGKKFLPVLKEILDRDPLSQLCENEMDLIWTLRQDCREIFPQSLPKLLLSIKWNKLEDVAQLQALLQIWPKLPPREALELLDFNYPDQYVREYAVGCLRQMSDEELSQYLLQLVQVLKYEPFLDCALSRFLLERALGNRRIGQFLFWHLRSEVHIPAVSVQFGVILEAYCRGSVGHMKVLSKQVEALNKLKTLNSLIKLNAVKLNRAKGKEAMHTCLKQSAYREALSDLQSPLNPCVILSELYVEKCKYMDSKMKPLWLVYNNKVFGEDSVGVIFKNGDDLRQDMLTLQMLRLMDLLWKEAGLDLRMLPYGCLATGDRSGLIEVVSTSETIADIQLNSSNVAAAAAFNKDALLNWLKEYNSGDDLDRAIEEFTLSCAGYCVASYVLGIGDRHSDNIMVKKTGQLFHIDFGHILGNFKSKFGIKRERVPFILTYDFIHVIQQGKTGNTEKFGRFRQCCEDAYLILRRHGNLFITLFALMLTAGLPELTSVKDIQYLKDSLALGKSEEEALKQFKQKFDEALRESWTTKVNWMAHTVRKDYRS
T3 sequence (P27986 whole entry partner): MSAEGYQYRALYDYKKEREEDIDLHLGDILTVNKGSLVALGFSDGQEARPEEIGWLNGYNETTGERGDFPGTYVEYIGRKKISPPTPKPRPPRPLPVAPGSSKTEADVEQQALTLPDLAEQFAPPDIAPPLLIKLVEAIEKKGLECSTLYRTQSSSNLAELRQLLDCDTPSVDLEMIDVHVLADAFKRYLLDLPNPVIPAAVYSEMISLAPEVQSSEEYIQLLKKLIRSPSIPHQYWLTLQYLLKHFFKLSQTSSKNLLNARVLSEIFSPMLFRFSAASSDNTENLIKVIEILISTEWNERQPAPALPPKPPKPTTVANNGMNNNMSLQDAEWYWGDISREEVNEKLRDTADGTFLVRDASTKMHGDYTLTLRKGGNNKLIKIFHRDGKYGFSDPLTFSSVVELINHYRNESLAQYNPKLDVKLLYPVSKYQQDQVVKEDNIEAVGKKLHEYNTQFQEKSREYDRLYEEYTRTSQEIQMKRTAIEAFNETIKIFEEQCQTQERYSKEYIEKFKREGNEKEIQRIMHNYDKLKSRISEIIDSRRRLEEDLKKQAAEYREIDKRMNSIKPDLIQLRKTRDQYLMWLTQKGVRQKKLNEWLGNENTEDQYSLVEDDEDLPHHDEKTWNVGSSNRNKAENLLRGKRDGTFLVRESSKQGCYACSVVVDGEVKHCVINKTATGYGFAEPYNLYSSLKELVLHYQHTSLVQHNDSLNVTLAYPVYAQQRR
T4 sequence (P42336 whole entry): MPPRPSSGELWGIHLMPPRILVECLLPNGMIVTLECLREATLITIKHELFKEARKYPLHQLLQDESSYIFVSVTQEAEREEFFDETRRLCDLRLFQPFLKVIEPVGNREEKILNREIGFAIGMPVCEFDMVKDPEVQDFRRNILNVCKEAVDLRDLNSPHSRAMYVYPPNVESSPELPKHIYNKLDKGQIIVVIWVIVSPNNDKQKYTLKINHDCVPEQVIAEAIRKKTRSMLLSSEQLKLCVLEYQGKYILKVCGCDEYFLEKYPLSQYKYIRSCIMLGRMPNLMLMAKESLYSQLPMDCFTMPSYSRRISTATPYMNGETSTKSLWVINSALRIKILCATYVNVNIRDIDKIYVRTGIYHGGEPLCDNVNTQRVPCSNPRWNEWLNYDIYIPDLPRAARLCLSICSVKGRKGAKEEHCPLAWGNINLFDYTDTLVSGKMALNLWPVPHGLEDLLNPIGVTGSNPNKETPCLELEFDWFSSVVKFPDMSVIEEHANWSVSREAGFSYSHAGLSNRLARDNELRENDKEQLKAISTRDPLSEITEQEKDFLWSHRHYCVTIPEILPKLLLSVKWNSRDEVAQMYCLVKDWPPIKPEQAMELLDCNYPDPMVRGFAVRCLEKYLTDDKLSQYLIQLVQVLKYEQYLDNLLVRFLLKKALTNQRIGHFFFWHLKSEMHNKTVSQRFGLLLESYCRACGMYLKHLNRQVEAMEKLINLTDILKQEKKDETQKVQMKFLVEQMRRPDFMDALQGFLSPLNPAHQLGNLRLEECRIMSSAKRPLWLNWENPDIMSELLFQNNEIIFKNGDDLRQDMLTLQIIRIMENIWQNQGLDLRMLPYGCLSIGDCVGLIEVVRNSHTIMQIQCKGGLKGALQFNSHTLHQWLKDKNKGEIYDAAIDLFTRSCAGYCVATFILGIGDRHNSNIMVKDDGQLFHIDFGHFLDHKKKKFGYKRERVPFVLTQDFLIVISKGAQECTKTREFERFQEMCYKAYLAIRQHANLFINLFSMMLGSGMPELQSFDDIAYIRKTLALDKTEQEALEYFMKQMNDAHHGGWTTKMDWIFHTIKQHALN
T4 sequence (P27986 whole entry partner): as the sequence (P27986 whole entry partner) above
T2 sequence (P48736 whole entry): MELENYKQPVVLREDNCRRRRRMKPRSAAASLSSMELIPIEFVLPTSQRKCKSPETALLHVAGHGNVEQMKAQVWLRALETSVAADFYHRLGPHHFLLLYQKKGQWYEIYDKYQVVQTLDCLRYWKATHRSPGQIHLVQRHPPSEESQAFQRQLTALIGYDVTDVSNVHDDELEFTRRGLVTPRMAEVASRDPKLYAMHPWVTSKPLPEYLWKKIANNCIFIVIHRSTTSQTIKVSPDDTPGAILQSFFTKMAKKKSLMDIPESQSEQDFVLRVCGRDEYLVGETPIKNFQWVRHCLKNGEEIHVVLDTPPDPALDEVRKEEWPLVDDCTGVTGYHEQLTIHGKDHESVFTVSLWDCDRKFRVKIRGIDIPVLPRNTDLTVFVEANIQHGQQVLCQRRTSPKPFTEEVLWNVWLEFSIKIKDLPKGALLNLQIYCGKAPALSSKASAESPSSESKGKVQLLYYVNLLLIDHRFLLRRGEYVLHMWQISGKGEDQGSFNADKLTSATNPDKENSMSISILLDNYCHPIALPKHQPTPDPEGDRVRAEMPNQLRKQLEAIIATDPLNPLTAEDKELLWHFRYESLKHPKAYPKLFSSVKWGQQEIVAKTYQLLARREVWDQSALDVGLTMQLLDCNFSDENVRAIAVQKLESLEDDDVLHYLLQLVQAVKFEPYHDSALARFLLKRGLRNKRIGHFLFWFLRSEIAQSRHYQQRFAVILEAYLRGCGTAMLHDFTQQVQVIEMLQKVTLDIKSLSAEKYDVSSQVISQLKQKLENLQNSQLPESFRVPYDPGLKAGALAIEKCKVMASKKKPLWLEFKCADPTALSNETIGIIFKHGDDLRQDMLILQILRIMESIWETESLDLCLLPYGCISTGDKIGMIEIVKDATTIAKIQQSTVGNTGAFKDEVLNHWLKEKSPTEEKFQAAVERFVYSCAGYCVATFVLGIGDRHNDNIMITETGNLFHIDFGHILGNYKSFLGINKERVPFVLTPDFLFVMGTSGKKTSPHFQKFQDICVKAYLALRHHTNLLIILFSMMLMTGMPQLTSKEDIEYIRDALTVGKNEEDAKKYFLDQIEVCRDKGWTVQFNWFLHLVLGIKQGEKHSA
T1 sequence (O00329 whole entry): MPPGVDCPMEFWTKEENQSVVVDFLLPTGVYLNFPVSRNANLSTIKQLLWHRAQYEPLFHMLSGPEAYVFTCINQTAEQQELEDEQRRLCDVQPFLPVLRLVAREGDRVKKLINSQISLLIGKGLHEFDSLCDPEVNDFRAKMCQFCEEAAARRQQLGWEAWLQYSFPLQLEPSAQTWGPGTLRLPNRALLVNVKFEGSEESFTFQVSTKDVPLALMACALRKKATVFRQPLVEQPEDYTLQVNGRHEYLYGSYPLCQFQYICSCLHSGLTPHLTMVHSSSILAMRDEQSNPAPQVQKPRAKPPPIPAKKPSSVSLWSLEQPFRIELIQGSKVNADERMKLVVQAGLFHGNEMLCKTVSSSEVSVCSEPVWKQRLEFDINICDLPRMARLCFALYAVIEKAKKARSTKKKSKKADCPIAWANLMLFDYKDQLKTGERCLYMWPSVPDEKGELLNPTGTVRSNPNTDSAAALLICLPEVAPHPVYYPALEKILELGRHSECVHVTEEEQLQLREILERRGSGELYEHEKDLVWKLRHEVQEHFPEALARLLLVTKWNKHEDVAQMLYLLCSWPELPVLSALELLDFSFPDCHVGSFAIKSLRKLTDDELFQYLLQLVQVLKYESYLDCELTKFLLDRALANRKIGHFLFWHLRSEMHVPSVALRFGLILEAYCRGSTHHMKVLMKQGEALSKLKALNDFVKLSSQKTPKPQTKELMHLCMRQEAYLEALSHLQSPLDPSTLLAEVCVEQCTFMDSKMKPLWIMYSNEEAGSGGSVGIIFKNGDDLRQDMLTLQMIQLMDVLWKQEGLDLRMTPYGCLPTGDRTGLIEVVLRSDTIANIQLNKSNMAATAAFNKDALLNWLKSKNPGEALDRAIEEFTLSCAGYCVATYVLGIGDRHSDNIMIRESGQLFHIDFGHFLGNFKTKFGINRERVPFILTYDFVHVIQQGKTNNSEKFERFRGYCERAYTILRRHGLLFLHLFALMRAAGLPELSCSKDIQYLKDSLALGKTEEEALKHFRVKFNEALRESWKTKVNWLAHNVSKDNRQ
T1 sequence (P27986 whole entry partner): as the sequence (P27986 whole entry partner) above

On to `CC(c1cc2ccc(C(F)(F)F)cn2c1-c1ccccn1)n1nc(-c2cc(O)cc(F)c2)c2c(N)ncnc21` (centres unmarked) [Example 88, 3-(4-amino-1-{1-[3-(pyridin-2-yl)-6-(trifluoromethyl)indolizin-2-yl]ethyl}-1H-pyrazolo[3,4-d]pyrimidin-3-yl)-5-fluorophenol], for which the IC50 is 10 to 1000 nM on PI3Kδ, greater than 1000 nM on PI3Kγ, greater than 1000 nM at PI3Kβ and greater than 1000 nM on PI3Kα.

Turning to `Cc1c(C(C)n2nc(-c3cc(O)cc(F)c3)c3c(N)ncnc32)c(-c2ccccn2)n2ccccc12` (centres unmarked) [Example 89, 3-(4-amino-1-{1-[1-methyl-3-(pyridin-2-yl)indolizin-2-yl]ethyl}-1H-pyrazolo[3,4-d]pyrimidin-3-yl)-5-fluorophenol], the IC50 at PI3Kδ, on PI3Kγ, on PI3Kβ and at PI3Kα was 10 to 1000 nM each time.

With `CC(c1cc2ccccn2c1-c1ccc(CN2CCOCC2)s1)n1nc(-c2cc(O)cc(F)c2)c2c(N)ncnc21` (centres unmarked) [Example 90, 3-[4-amino-1-(1-{3-[5-(morpholin-4-ylmethyl)thiophen-2-yl]indolizin-2-yl}ethyl)-1H-pyrazolo[3,4-d]pyrimidin-3-yl]-5-fluorophenol], the IC50 on PI3Kδ was less than 10 nM; at PI3Kγ, 10 to 1000 nM; at PI3Kβ, 10 to 1000 nM; on PI3Kα, 10 to 1000 nM.

`CC(c1cc2ccccn2c1-c1ccc(CN2CCOCC2)cc1)n1nc(-c2cc(O)cc(F)c2)c2c(N)ncnc21` (centres unmarked) [Example 91, 3-[4-amino-1-(1-{3-[4-(morpholin-4-ylmethyl)phenyl]indolizin-2-yl}ethyl)-1H-pyrazolo[3,4-d]pyrimidin-3-yl]-5-fluorophenol]: the IC50 was 10 to 1000 nM at PI3Kδ, greater than 1000 nM at PI3Kγ, greater than 1000 nM at PI3Kβ and greater than 1000 nM on PI3Kα.

For `CC(c1cc2ccccn2c1-c1ccc(CN(C)C)cc1)n1nc(-c2cc(O)cc(F)c2)c2c(N)ncnc21` (centres unmarked) [Example 92, 3-{4-amino-1-[1-(3-{4-[(dimethylamino)methyl]phenyl}indolizin-2-yl)ethyl]-1H-pyrazolo[3,4-d]pyrimidin-3-yl}-5-fluorophenol], the IC50 at PI3Kδ was 10 to 1000 nM; on PI3Kγ, greater than 1000 nM; on PI3Kβ, 10 to 1000 nM; at PI3Kα, greater than 1000 nM.

In the case of `CC(c1cc2ccccn2c1-c1cncs1)n1nc(-c2cc(O)cc(F)c2)c2c(N)ncnc21` (centres unmarked) [Example 94, 3-(4-amino-1-{1-[3-(1,3-thiazol-5-yl)indolizin-2-yl]ethyl}-1H-pyrazolo[3,4-d]pyrimidin-3-yl)-5-fluorophenol], the IC50 at PI3Kδ is less than 10 nM; on PI3Kγ, 10 to 1000 nM; on PI3Kβ, 10 to 1000 nM; at PI3Kα it was 10 to 1000 nM.

Turning to `CC(c1cc2ccccn2c1N1CCCC1=O)n1nc(-c2cc(O)cc(F)c2)c2c(N)ncnc21` (centres unmarked) [Example 95, 1-(2-{1-[4-amino-3-(3-fluoro-5-hydroxyphenyl)-1H-pyrazolo[3,4-d]pyrimidin-1-yl]ethyl}indolizin-3-yl)pyrrolidin-2-one], the IC50 was less than 10 nM at PI3Kδ, 10 to 1000 nM on PI3Kγ, 10 to 1000 nM on PI3Kβ and 10 to 1000 nM at PI3Kα.

Consider `CC(c1cc2cccnn2c1-c1ccccn1)n1nc(-c2cc(O)cc(F)c2)c2c(N)ncnc21` (centres unmarked) [Example 96, 3-(4-amino-1-{1-[7-(pyridin-2-yl)pyrrolo[1,2-b]pyridazin-6-yl]ethyl}-1H-pyrazolo[3,4-d]pyrimidin-3-yl)-5-fluorophenol], for which the IC50 is less than 10 nM at PI3Kδ, greater than 1000 nM on PI3Kγ, 10 to 1000 nM at PI3Kβ and greater than 1000 nM on PI3Kα.

Take `Nc1ncnc2c1c(-c1cc(O)cc(F)c1)nn2Cc1cc2ccccn2c1-c1ccccn1` [Example 97, 3-(4-amino-1-{[3-(pyridin-2-yl)indolizin-2-yl]methyl}-1H-pyrazolo[3,4-d]pyrimidin-3-yl)-5-fluorophenol]: the IC50 on PI3Kδ is less than 10 nM; on PI3Kγ it was 10 to 1000 nM; on PI3Kβ, 10 to 1000 nM; at PI3Kα, 10 to 1000 nM.

For `Nc1ncnc2c1c(-c1cc(O)cc(F)c1)nn2Cc1cc2ccccn2c1-c1cccnc1` [Example 98, 3-(4-amino-1-{[3-(pyridin-3-yl)indolizin-2-yl]methyl}-1H-pyrazolo[3,4-d]pyrimidin-3-yl)-5-fluorophenol], the IC50 on PI3Kδ, on PI3Kγ, on PI3Kβ and on PI3Kα was 10 to 1000 nM each time.

With `Nc1ncnc2c1c(-c1cc(O)cc(F)c1)nn2Cc1cc2ccccn2c1-c1ccncc1` [Example 99, 3-(4-amino-1-{[3-(pyridin-4-yl)indolizin-2-yl]methyl}-1H-pyrazolo[3,4-d]pyrimidin-3-yl)-5-fluorophenol], the IC50 on PI3Kδ is less than 10 nM; on PI3Kγ it was 10 to 1000 nM; at PI3Kβ, 10 to 1000 nM; on PI3Kα, 10 to 1000 nM.

As for `Nc1ncnc2c1c(-c1cc(O)cc(F)c1)nn2Cc1cc2cccnn2c1-c1ccccn1` [Example 100, 3-(4-amino-1-{[7-(pyridin-2-yl)pyrrolo[1,2-b]pyridazin-6-yl]methyl}-1H-pyrazolo[3,4-d]pyrimidin-3-yl)-5-fluorophenol], the IC50 on PI3Kδ was less than 10 nM; on PI3Kγ, 10 to 1000 nM; on PI3Kβ, 10 to 1000 nM; on PI3Kα, greater than 1000 nM.

For `CC(c1cc2ccccn2c1C1=CCNCC1)n1nc(-c2cc(O)cc(F)c2)c2c(N)ncnc21` (centres unmarked) [Example 101, 3-(4-amino-1-{1-[3-(1,2,3,6-tetrahydropyridin-4-yl)indolizin-2-yl]ethyl}-1H-pyrazolo[3,4-d]pyrimidin-3-yl)-5-fluorophenol], the IC50 is 10 to 1000 nM at PI3Kδ, greater than 1000 nM on PI3Kγ, 10 to 1000 nM at PI3Kβ and greater than 1000 nM on PI3Kα.

Turning to `CC(c1cc2ccccn2c1-c1ccccn1)n1nc(C#CCO)c2c(N)ncnc21` (centres unmarked) [Example 102, 3-(4-amino-1-{1-[3-(pyridin-2-yl)indolizin-2-yl]ethyl}-1H-pyrazolo[3,4-d]pyrimidin-3-yl)prop-2-yn-1-ol], the IC50 is 10 to 1000 nM on PI3Kδ, greater than 1000 nM on PI3Kγ, greater than 1000 nM on PI3Kβ and greater than 1000 nM on PI3Kα.

Turning to `CC(c1cc2ccccn2c1-c1ccccn1)n1nc(-c2cnc(N)s2)c2c(N)ncnc21` (centres unmarked) [Example 103, 5-(4-amino-1-{1-[3-(pyridin-2-yl)indolizin-2-yl]ethyl}-1H-pyrazolo[3,4-d]pyrimidin-3-yl)-1,3-thiazol-2-amine], the IC50 is 10 to 1000 nM at PI3Kδ, 10 to 1000 nM on PI3Kγ, 10 to 1000 nM at PI3Kβ and greater than 1000 nM at PI3Kα.

In the case of `CC(c1cc2cc(Cl)ccn2c1-c1ccccn1)n1nc(-c2cc(O)cc(F)c2)c2c(N)ncnc21` (centres unmarked) [Example 104, 3-(4-amino-1-{1-[7-chloro-3-(pyridin-2-yl)indolizin-2-yl]ethyl}-1H-pyrazolo[3,4-d]pyrimidin-3-yl)-5-fluorophenol], the IC50 on PI3Kδ is less than 10 nM; at PI3Kγ, 10 to 1000 nM; on PI3Kβ, 10 to 1000 nM; at PI3Kα it was 10 to 1000 nM.

For `Cc1ccn2c(-c3ccccn3)c(C(C)n3nc(-c4cc(O)cc(F)c4)c4c(N)ncnc43)cc2c1` (centres unmarked) [Example 105, 3-(4-amino-1-{1-[7-methyl-3-(pyridin-2-yl)indolizin-2-yl]ethyl}-1H-pyrazolo[3,4-d]pyrimidin-3-yl)-5-fluorophenol], the IC50 at PI3Kδ is 10 to 1000 nM; at PI3Kγ it was greater than 1000 nM; on PI3Kβ, greater than 1000 nM; at PI3Kα it was greater than 1000 nM.
